“And” between values parts separate entries of the source, which are not always exact repeats. Equal values may be shown once.
Legend:
CREB / CRTC1 interaction = molecular target: T1, CREB / CRTC1 interaction (Homo sapiens, UniProt P16220); experiment: Co-immunoprecipitation of GFP-CRTC1 by MYC-CREB, HEK293T; assay type: cell-based; conditions: overexpression HEK293T cells, APC 10 μM
T1 construct: expressed in transfected cells; host or cells: HEK293T
Procedure: 1 Supplementary Figure 2.
2 a) Immunoblot of HA-P300 recovered from HEK293T cell lysate using GST-CREB beads. APC
3 (10 μM) was incubated with cells for 1-h before FKS (10 nM) stimulation and was included in the
4 following pull-down mixtures (n=3). One of two independent experiments presented here.
5 b) Immunoblot for recovered GFP-CRTC1 or (c) GFP-CRTC3 immunoprecipitated by MYC-CREB
6 from overexpression HEK293T cell line. APC (10 μM) was incubated with cells for 1-h before FKS
7 (10 nM) stimulation and was included in the following pull-down mixtures. One of two independent
8 experiments presented here.
9 d) SPR sonogram traces of APC binding with HIS-CREB proteins immobilized to NTA-chip. The
10 concentration series of APC was as indicated.
11 e) SPR sonogram traces of APC flowing through HIS-CRTC2-S171A proteins immobilized on
12 NTA-chip. The concentration of APC was as indicated.
13 f) The luciferase enzymatic activity of HEK293T incubated with APC. Cells over-expressed
14 luciferase CRE-Luc reporter and were stimulated by FSK (10 nM) for 5-h before lysis, which was
15 then incubated with APC (concentration indicated) for 30 min before luciferase activity determination
16 (n=3 per treatment). Data are represented as mean ± SEM. *, p < 0.05; **, p < 0.01; p values were
17 determined by one-way ANOVA followed Dunnett’s multiple comparisons test. […]

[1] = Body weight and body composition (living NMR) of mice; assay type: in vivo, mouse; parameters: AUC of body weight curve, group mean / fat mass of DIO, group mean / Total Area (AUC of body weight curve): unit not given here; conditions: for Total Area (AUC of body weight curve) / Body weight, column mean (main column effect) / AUC of body weight curve, group mean / Body weight (BW) / Fat/lean ratio / fat mass of DIO / Fat/lean ratio, group mean / fat mass of DIO, group mean: DIO mice; for Body weight, column mean (main column effect): mean over 5 weeks, N=45; for AUC of body weight curve, group mean: n=9; for Fat/lean ratio, group mean / fat mass of DIO, group mean: n=8; for body weight of db/db ip APC, group mean: N 6; for Body weight, group mean: N=7; for Body weight: individual mice
Procedure: All animal experiments were performed according to procedures approved by the Shanghai Institutes for Biological Sciences (SIBS) Animal Care and Use Committee. The db/db mice (stock NO. 000642 C57BL/6J, JACKSON) were purchased from the Jackson laboratory. The 8–10-week-old wild-type C57BL/6 and ICR/JCL mice were purchased from the Shanghai Laboratory Animal Center. Mice were housed in the animal facility at SIBS, in which mice were maintained on a 12-h light/12-h dark cycle for at least 2 weeks before the study and had free access to water and a regular diet (12% fat). For high-fat-induced obesity mice (DIO), high-fat diet (60% fat, Research Diets) was fed to wild-type mice for at least 13–15 weeks and glucose-tolerance tests were performed to confirm the development of diabetes in these mice. After being euthanized, samples were collected. Unless specified, male mice were used for these experiments.
Under the condition of non-anesthesia and non-invasion, the composition of fat and lean in live mice was analyzed by nuclear magnetic resonance (NMR, The Minispec, Bruker) according to the operational manual.

[2] = DIO and db/db mice, i.p. 10 or 20 mg/kg
[3] = APC 10 mg/kg, individual animals
[4] = APC 20 mg/kg, individual animals
[5] = db/db mice, mean, sample size 7

T1 sequence (P16220 whole entry): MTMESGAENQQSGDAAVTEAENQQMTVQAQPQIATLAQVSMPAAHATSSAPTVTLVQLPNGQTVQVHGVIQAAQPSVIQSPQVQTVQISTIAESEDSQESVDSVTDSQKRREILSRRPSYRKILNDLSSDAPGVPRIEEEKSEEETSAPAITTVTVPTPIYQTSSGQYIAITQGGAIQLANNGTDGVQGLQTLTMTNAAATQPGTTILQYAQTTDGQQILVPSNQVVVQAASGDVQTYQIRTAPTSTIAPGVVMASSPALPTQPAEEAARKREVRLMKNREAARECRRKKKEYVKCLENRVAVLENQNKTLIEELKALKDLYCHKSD

SMILES: CC(C)=CCc1cc(C=CC(=O)O)cc(CC=C(C)C)c1O [APC, 3,5-diprenyl-4-hydroxycinnamic acid]
- interaction of CREB and CRTC1 (CREB / CRTC1 interaction): attenuated
- body weights [1, 2]: reduced
- fat mass and fat to lean ratio [1, 2]: significant decrease
- Total Area (AUC of body weight curve) ([1]; APC 10 mg/kg ip, individual animals): 120.1 and 149.9 and 145.1 and 147.4 and 144.1 and 156.2 and 141.9 and 151.1 and 155.2
- Body weight, column mean (main column effect) ([1]; APC 10 mg/kg ip, in g (unit assumed)): 37.24
- AUC of body weight curve, group mean ([1]; APC 10 mg/kg ip): 145.7
- Body weight (BW) ([1]; APC 10 mg/kg ip, week 0, individual animals): 35.8 g and 42.4 g and 44.2 g and 42.6 g and 43.4 g and 41.4 g and 42 g and 41.7 g and 47 g
- Body weight (BW) ([1]; APC 10 mg/kg ip, week 1, individual animals): 29.5 g and 36.7 g (2×) and 37.7 g and 36.4 g and 42.9 g and 35.2 g and 34.9 g and 39.6 g
- Body weight (BW) ([1]; APC 10 mg/kg ip, week 2, individual animals): 29.3 g and 36.8 g and 38.4 g and 36 g (2×) and 36.6 g and 42.8 g and 35.7 g and 39.9 g
- Body weight (BW) ([1]; APC 10 mg/kg ip, week 3, individual animals): 29.3 g and 37.3 g and 38.5 g and 36.1 g and 35 g and 42.4 g and 35.3 g and 35.8 g and 39.5 g
- Body weight (BW) ([1]; APC 10 mg/kg ip, week 4, individual animals): 29.7 g and 37.3 g and 38.4 g and 36.7 g and 33.7 g and 40.9 g and 33.3 g and 42 g and 37.2 g
- Body weight (BW) ([1]; APC 10 mg/kg ip, week 5, individual animals): 34.01 g and 40.28 g and 41.99 g and 40.47 g and 41.23 g and 39.33 g and 39.9 g and 39.615 g and 44.65 g
- Fat/lean ratio [1, 3]: 0.4757 and 0.5256 and 0.2029 and 0.4176 and 0.1933 and 0.2387 and 0.2853 and 0.2798
- fat mass of DIO [1, 3]: 10.86 g and 11.25 g and 7.23 g and 10.98 g and 11.28 g and 7.03 g and 6.72 g and 7.86 g
- Fat/lean ratio, group mean ([1]; APC 10 mg/kg): 0.3274
- fat mass of DIO, group mean ([1]; APC 10 mg/kg): 9.151
- Total Area (AUC of body weight curve) ([1]; APC 20 mg/kg ip, individual animals): 123.1 and 131.4 and 141.8 and 135.4 and 152.5 and 146.9 and 147.6 and 154 and 138.7
- Body weight, column mean (main column effect) ([1]; APC 20 mg/kg ip, in g (unit assumed)): 35.74
- AUC of body weight curve, group mean ([1]; APC 20 mg/kg ip): 141.3
- Body weight (BW) ([1]; APC 20 mg/kg ip, week 0, individual animals): 36.3 g and 41.5 g and 43.7 g and 41.3 g (2×) and 48.2 g and 44.7 g and 46.6 g and 47.1 g
- Body weight (BW) ([1]; APC 20 mg/kg ip, week 1, individual animals): 29.9 g and 34.9 g and 36.7 g and 33 g and 40.6 g and 37.6 g and 35.9 g and 38.6 g and 35.1 g
- Body weight (BW) ([1]; APC 20 mg/kg ip, week 2, individual animals): 30.2 g and 33.7 g (2×) and 35.8 g and 41.6 g and 38.4 g and 36.8 g and 39.6 g and 34.9 g
- Body weight (BW) ([1]; APC 20 mg/kg ip, week 3, individual animals): 30 g and 31.4 g and 35.1 g and 33.7 g and 41.2 g and 35.4 g and 36.3 g and 37.9 g and 34.4 g
- Body weight (BW) ([1]; APC 20 mg/kg ip, week 4, individual animals): 30.5 g and 31.2 g and 34 g (2×) and 38.9 g and 31.3 g and 36.7 g and 37.2 g and 34.3 g
- Body weight (BW) ([1]; APC 20 mg/kg ip, week 5, individual animals): 30.855 g and 35.275 g and 37.145 g and 35.105 g (2×) and 40.97 g and 37.995 g and 39.61 g and 40.035 g
- Fat/lean ratio [1, 4]: 0.1945 and 0.1916 and 0.1806 and 0.5498 and 0.1998 and 0.4126 and 0.3005 and 0.2177
- fat mass of DIO [1, 4]: 8.13 g and 8.08 g and 9.26 g and 10.23 g and 9.91 g and 8.44 g and 10.75 g and 9.93 g
- Fat/lean ratio, group mean ([1]; APC 20 mg/kg): 0.2809
- fat mass of DIO, group mean ([1]; APC 20 mg/kg): 9.341
- fat of db/db mice ([1]; db/db mice, individual animals): 13.23 g and 18.64 g and 16.51 g and 20.35 g and 17.58 g and 17.71 g and 15.53 g
- fat/lean ratio of db/db mice ([1]; db/db mice, individual animals): 1.371 and 1.124 (2×) and 1.477 and 1.196 and 1.113 and 1.231
- body weight of db/db ip APC ([1]; db/db mice, 0W, individual animals): 45.4 g and 45.3 g and 44.6 g and 40 g and 47.8 g and 44 g
- body weight of db/db ip APC ([1]; db/db mice, 1W, individual animals): 48.6 g and 47.9 g and 47.4 g and 42.5 g and 49.5 g and 45.9 g
- body weight of db/db ip APC, group mean ([1]; db/db mice, 1W, mean): 46.97 g
- body weight of db/db ip APC ([1]; db/db mice, 2W, individual animals): 48.4 g and 47.9 g and 47.3 g and 41.7 g and 48.9 g and 45.9 g
- body weight of db/db ip APC ([1]; db/db mice, 4W, individual animals): 47.9 g and 46.5 g and 48.1 g and 42.5 g and 45.8 g and 47.8 g
- body weight of db/db ip APC, group mean ([1]; db/db mice, 4W, mean): 46.43 g
- body weight of db/db ip APC ([1]; db/db mice, 5W, individual animals): 47.9 g and 45.3 g and 47.8 g and 44.9 g and 46.8 g and 48.5 g
- body weight of db/db ip APC, group mean ([1]; db/db mice, 5W, mean): 46.87 g
- fat of db/db mice, group mean [1, 5]: 17.08 g
- fat/lean ratio of db/db mice, group mean [1, 5]: 1.234
- Body weight, group mean ([1]; lean WT mice ip APC, 8w, in g (unit assumed)): 20.96
- Body weight ([1]; lean WT mice ip APC, 8w): 21.4 g and 21.2 g and 20.1 g and 20.5 g and 21.7 g and 20.9 g (2×) and 21.6 g
- Body weight, column mean over all weeks ([1]; lean WT mice ip APC, 8w-15w, in g (unit assumed)): 22.98
- Body weight, group mean ([1]; lean WT mice ip APC, 10w, in g (unit assumed)): 22.01
- Body weight ([1]; lean WT mice ip APC, 10w): 23.62 g and 20.96 g and 22.95 g and 20.89 g and 22.05 g and 22.38 g and 21.2 g and 21.22 g
- Body weight, group mean ([1]; lean WT mice ip APC, 12w, in g (unit assumed)): 23.14
- Body weight ([1]; lean WT mice ip APC, 12w): 25.7 g and 21.4 g and 23.7 g and 23 g and 24.2 g and 22.5 g and 23.3 g and 21.5 g
- Body weight, group mean ([1]; lean WT mice ip APC, 13w, in g (unit assumed)): 24.08
- Body weight ([1]; lean WT mice ip APC, 13w): 25.85 g and 22.7 g and 24.7 g and 23.6 g and 24.5 g and 24.21 g and 23.8 g and 23 g
- Body weight, group mean ([1]; lean WT mice ip APC, 15w, in g (unit assumed)): 24.72
- Body weight ([1]; lean WT mice ip APC, 15w): 27.03 g and 22.8 g and 25.2 g and 23.7 g and 26 g and 24.5 g and 23.5 g and 23.8 g
- RER, body weight and plasma NEFA levels of lean mice ([1]; lean wild C57 mice, i.p. 20 mg/kg, 3 weeks): little effect
